Patent EP1210336B1, “SUBSTITUTED BENZIMIDAZOLES AS NON-NUCLEOSIDE INHIBITORS OF REVERSE TRANSCRIPTASE” (THE UNITED STATES OF AMERICA, as represented by the …, priority 1999, dated 2001)

What was measured:
Assay in all cases: Cytopathic cell killing assay, cross-resistance profile, infected MT-4 cells
Type in all cases: cell-based
[1] = test system: HIV-1 variant K103N; settings: for EC50: isolate K103N
Summary of the method: (§1)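 Cells seeded at 5 x 10^3 per well and infected with pre-titered HIV at MOI giving full killing by day 6 (e.g., 0.01-0.05). Compounds tested in triplicate serial half-log dilutions. Viability measured after six days at 37°C by XTT formazan at 450 nm; TI50 = fold-difference between EC50 and IC50.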

[2] = test system: HIV-1 variant Y188C
Summary of the method: as §1

[3] = test system: HIV-1 variant L74V
Summary of the method: as §1

[4] = test system: HIV-1 variant V179D; settings: isolate V179D
Summary of the method: as §1

[5] = test system: HIV-1 variant L100I
Summary of the method: as §1

[6] = test system: HIV-1 variant V108I
Summary of the method: as §1

[7] = test system: HIV-1 isolate 4xAZT
Summary of the method: as §1

[8] = test system: HIV-1 variant Y181C; settings: isolate Y181C
Summary of the method: as §1

[9] = test system: HIV-1 variant A98G
Summary of the method: as §1

[10] = test system: HIV-1 variant V106A
Summary of the method: as §1

[11] = test system: HIV-1 isolate 4xAZT/Y181C
Summary of the method: as §1

[12] = test system: HIV-1 variant K101E
Summary of the method: as §1

[13] = test system: HIV-1 isolate 4xAZT/L100I
Summary of the method: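 Cytopathic protection assay: cells at 5 x 10^3/well infected with pre-titered HIV isolate (e.g., MOI 0.01-0.05), compound serial half-log dilutions in triplicate.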

[14] = Human immunodeficiency virus 1, MT4, Table 4
[15] = Human immunodeficiency virus 1, MT4, Table 8
[16] = Human immunodeficiency virus 1, MT4, Table 9
[17] = Human immunodeficiency virus 1, MT4, Table 10 (values in µM)
[18] = Human immunodeficiency virus 1, MT4, Table 4, isolate Y188C
[19] = Human immunodeficiency virus 1, MT4, Table 8, isolate Y 188C
[20] = Human immunodeficiency virus 1, MT4, Table 9, isolate Y188C
[21] = Human immunodeficiency virus 1, MT4, Table 4, isolate L74V
[22] = Human immunodeficiency virus 1, MT4, Table 8, isolate 1.74V
[23] = Human immunodeficiency virus 1, MT4, Table 9, isolate 1.74 V
[24] = Human immunodeficiency virus 1, MT4, Table 4, isolate L1001
[25] = Human immunodeficiency virus 1, MT4, Table 8, isolate 1.1001
[26] = Human immunodeficiency virus 1, MT4, Table 9, isolate L1001
[27] = Human immunodeficiency virus 1, MT4, Table 4, isolate V108I
[28] = Human immunodeficiency virus 1, MT4, Table 8, isolate V1081
[29] = Human immunodeficiency virus 1, MT4, Table 9, isolate V1081
[30] = Human immunodeficiency virus 1, MT4, Table 4, isolate 4xAZT
[31] = Human immunodeficiency virus 1, MT4, Table 8, isolate 4XAZT
[32] = Human immunodeficiency virus 1, MT4, Table 4, isolate A98G
[33] = Human immunodeficiency virus 1, MT4, Table 8, isolate A9SG
[34] = Human immunodeficiency virus 1, MT4, Table 9, isolate A98G
[35] = Human immunodeficiency virus 1, MT4, Table 4, isolate V106A
[36] = Human immunodeficiency virus 1, MT4, Table 8, isolate V 106A
[37] = Human immunodeficiency virus 1, MT4, Table 9, isolate V106A
[38] = Human immunodeficiency virus 1, MT4, Table 4, isolate 4xAZT/Y181C
[39] = Human immunodeficiency virus 1, MT4, Table 8, isolate 4XAZT /Y181C
[40] = Human immunodeficiency virus 1, MT4, Table 4, isolate K101E
[41] = Human immunodeficiency virus 1, MT4, Table 8, isolate K101E
[42] = Human immunodeficiency virus 1, MT4, Table 9, isolate KIOIE
[43] = Human immunodeficiency virus 1, MT4, Table 4, isolate 4xAZT/L.1001
[44] = Human immunodeficiency virus 1, MT4, Table 8, isolate 4XA7T L 1001
[45] = Human immunodeficiency virus 1, MT4, Table 9, isolate 4XAZT /L1001

## Cc1cccc2c1nc(-c1c(F)cccc1F)n2Cc1c(F)cccc1F [compound 33, 1-(2,6-difluorobenzyl)-2-(2,6-difluorophenyl)-4-methylbenzimidazole]
[1]; [14]
  EC50: 8.1 µM
[1]; [15]
  EC50: > 20 µM
[1]; [16]
  EC50: > 20 µM
[1]; [17]
  EC50: 8.1 µM
[2]; [18]
  EC50: 2.3 µM
[2]; [19]
  EC50: 3 µM
[2]; [20]
  EC50: 3 µM
[2]; Human immunodeficiency virus 1, MT4, Table 10 (values in µM), isolate Y188C
  EC50: 2.3 µM
[3]; [21]
  EC50: 0.1 µM
[3]; [22]
  EC50: 0.3 µM
[3]; [23]
  EC50: 0.3 µM
[4]; [14]
  EC50: 0.5 µM
[4]; [15]
  EC50: 0.7 µM
[4]; [16]
  EC50: 0.7 µM
[5]; [24]
  EC50: 0.3 µM
[5]; [25]
  EC50: 0.3 µM
[5]; [26]
  EC50: 0.3 µM
[5]; Human immunodeficiency virus 1, MT4, Table 10 (values in µM), isolate L1001
  EC50: 0.3 µM
[6]; [27]
  EC50: 2.8 µM
[6]; [28]
  EC50: 2.8 µM
[6]; [29]
  EC50: 2.8 µM
[6]; Human immunodeficiency virus 1, MT4, Table 10 (values in µM), isolate V108l
  EC50: 2.8 µM
[7]; [30]
  EC50: 0.1 µM
[7]; [31]
  EC50: 0.1 µM
[7]; Human immunodeficiency virus 1, MT4, Table 9, isolate 4XAZT
  EC50: 0.1 µM
[8]; [14]
  EC50: 6 µM
[8]; [16]
  EC50: 4.3 µM
[8]; [17]
  EC50: 6 µM
[9]; [32]
  EC50: 1.4 µM
[9]; [33]
  EC50: 27 µM
[9]; [34]
  EC50: 2.7 µM
[10]; [35]
  EC50: 20 µM
[10]; [36]
  EC50: > 10 µM
[10]; [37]
  EC50: > 10 µM
[11]; [38]
  EC50: 3.5 µM
[11]; [39]
  EC50: 3.5 µM
[12]; [40]
  EC50: 16.7 µM
[12]; [41]
  EC50: > 10 µM
[12]; [42]
  EC50: > 10 µM
[12]; Human immunodeficiency virus 1, MT4, Table 10 (values in µM), isolate K101E
  EC50: 16.7 µM
[13]; [43]
  EC50: 0.2 µM
[13]; [44]
  EC50: 0.2 µM
[13]; [45]
  EC50: 0.2 µM

## Fc1cccc(F)c1C1SCc2nc3ccccc3n21 (stereo not drawn) [TZB, 1-(2,6-difluorophenyl)-1H,3H-thiazolo[3,4-a]benzimidazole, reference compound]
[1]; [14]
  EC50: > 20 µM
[1]; [15]
  EC50: > 10 µM
[1]; [16]
  EC50: > 20 µM
[1]; result in words, cytopathic cell killing assay
  activity against the K103N mutation / isolate: ineffective
[2]; [18]
  EC50: > 20 µM
[2]; [19]
  EC50: > 20 µM
[2]; [20]
  EC50: > 20 µM
[3]; [21]
  EC50: 0.7 µM
[3]; [22]
  EC50: 0.8 µM
[3]; [23]
  EC50: 0.5 µM
[4]; [14]
  EC50: 3.1 µM
[4]; [15]
  EC50: > 10 µM
[4]; [16]
  EC50: 3.9 µM
[5]; [24]
  EC50: 12.2 µM
[5]; [25]
  EC50: 6.6 µM
[5]; [26]
  EC50: 6.6 µM
[6]; [27]
  EC50: 9.7 µM
[6]; [28]
  EC50: 3.9 µM
[6]; [29]
  EC50: 5.7 µM
[7]; [30]
  EC50: 1.5 µM
[7]; [31]
  EC50: 1.1 µM
[8]; [14]
  EC50: 16.3 µM
[8]; [16]
  EC50: > 10 µM
[9]; [32]
  EC50: 17.7 µM
[9]; [33]
  EC50: 10 µM
[9]; [34]
  EC50: 10 µM
[10]; [35]
  EC50: > 20 µM
[10]; [36]
  EC50: 5.7 µM
[10]; [37]
  EC50: > 10 µM
[11]; [38]
  EC50: 14.5 µM
[11]; [39]
  EC50: > 10 µM
[11]; Human immunodeficiency virus 1, MT4, Table 9, isolate 4XAZT /Y181C
  EC50: > 10 µM
[12]; [40]
  EC50: > 20 µM
[12]; [41]
  EC50: > 10 µM
[12]; [42]
  EC50: > 10 µM
[13]; [43]
  EC50: 1.7 µM
[13]; [44]
  EC50: 1.1 µM
[13]; [45]
  EC50: 1.1 µM
